Test results as given in article PMC8445441, “Elucidating the mechanism by which synthetic helper peptides sensitize Pseudomonas aeruginosa to multiple antibiotics” (PLoS Pathogens, 2021).
“And” between values parts separate entries of the source, which are not always exact repeats. Equal values may be shown once. Read-outs that look alike come from different tables or passages of the source.

Legend:
[1] = system: clinical P. aeruginosa isolates; assay: microbe, parasite or virus in culture; conditions: Pseudomonas aeruginosa, 18 h, antibiotic alone
Procedure, shortened: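 MIC is the lowest drug concentration showing no visible growth after 18 h at 37 °C. Two-fold dilutions in MHB were combined with an equal volume of bacterial suspension (about 1 × 10^6 CFU/mL), following CLSI broth microdilution, in triplicate.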

P. aeruginosa AUMC-Pa-5 = assay: microbe, parasite or virus in culture; conditions: strain AUMC-Pa-5; for FICI: antibiotic + D-11 (MICb/MICbc 64/4); for MICa: MIC of the antibiotic: antibiotic alone; for MICa: MIC of the antibiotic / MICac: MIC of the antibiotic in the combination: unit not given; for MICac: MIC of the antibiotic in the combination: with D-11 at MICbc 4
Procedure, shortened: (§1)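 Triplicate microdilution MICs: MHB, two-fold series, equal-volume inoculum from ~1 × 10^6 CFU/mL suspension, 37 °C, 18 h, lowest concentration lacking visible growth.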

P. aeruginosa AUMC-Pa-4 = assay: microbe, parasite or virus in culture; conditions: strain AUMC-Pa-4; for FICI: antibiotic + D-11 (MICb/MICbc 128/4); for MICa: MIC of the antibiotic: antibiotic alone; for MICa: MIC of the antibiotic / MICac: MIC of the antibiotic in the combination: unit not given; for MICac: MIC of the antibiotic in the combination: with D-11 at MICbc 4
Procedure, shortened: as §1

P. aeruginosa PAO1 = assay: microbe, parasite or virus in culture; conditions: for MIC: Pseudomonas aeruginosa
Procedure, shortened: as §1

P. aeruginosa AUMC-Pa-3 = assay: microbe, parasite or virus in culture; conditions: strain AUMC-Pa-3; for FICI: antibiotic + D-11 (MICb/MICbc 128/4); for MICa: MIC of the antibiotic: antibiotic alone; for MICa: MIC of the antibiotic / MICac: MIC of the antibiotic in the combination: unit not given; for MICac: MIC of the antibiotic in the combination: with D-11 at MICbc 4
Procedure, shortened: as §1

P. aeruginosa AUMC-Pa-6 = assay: microbe, parasite or virus in culture; conditions: strain AUMC-Pa-6; for FICI: antibiotic + D-11 (MICb/MICbc 64/4); for MICa: MIC of the antibiotic: antibiotic alone; for MICa: MIC of the antibiotic / MICac: MIC of the antibiotic in the combination: unit not given; for MICac: MIC of the antibiotic in the combination: with D-11 at MICbc 4
Procedure, shortened: as §1

P. aeruginosa AUMC-Pa-2 = conditions: strain AUMC-Pa-2; antibiotic + D-11 (MICb/MICbc 64/4)
Procedure, shortened: as §1

P. aeruginosa AUMC-Pa-1 = conditions: strain AUMC-Pa-1; antibiotic + D-11 (MICb/MICbc 128/4)
Procedure, shortened: as §1

P. aeruginosa PAK = assay: microbe, parasite or virus in culture; design: MICa: MIC of the antibiotic / MICac: MIC of the antibiotic in the combination: unit not given beside the values; conditions: strain PAK; for FICI: antibiotic + D-11 (MICb/MICbc 64/4); for MICa: MIC of the antibiotic: antibiotic alone; for MICa: MIC of the antibiotic / MICac: MIC of the antibiotic in the combination: unit not given; for MICac: MIC of the antibiotic in the combination: with D-11 at MICbc 4
Procedure, shortened: as §1

P. aeruginosa NR-31041 = assay: microbe, parasite or virus in culture; design: MICa: MIC of the antibiotic / MICac: MIC of the antibiotic in the combination: unit not given beside the values; conditions: strain NR-31041; for FICI: antibiotic + D-11 (MICb/MICbc 64/4); for MICa: MIC of the antibiotic: antibiotic alone; for MICa: MIC of the antibiotic / MICac: MIC of the antibiotic in the combination: unit not given; for MICac: MIC of the antibiotic in the combination: with D-11 at MICbc 4
Procedure, shortened: as §1

P. aeruginosa ATCC27853 = assay: microbe, parasite or virus in culture; design: MICa: MIC of the antibiotic / MICac: MIC of the antibiotic in the combination: unit not given beside the values; conditions: strain ATCC27853; for FICI: antibiotic + D-11 (MICb/MICbc 32/4)
Procedure, shortened: as §1

P. aeruginosa NR-31040 = assay: microbe, parasite or virus in culture; design: MICa: MIC of the antibiotic / MICac: MIC of the antibiotic in the combination: unit not given beside the values; conditions: strain NR-31040; for FICI: antibiotic + D-11 (MICb/MICbc 128/4); for MICa: MIC of the antibiotic: antibiotic alone; for MICa: MIC of the antibiotic / MICac: MIC of the antibiotic in the combination: unit not given; for MICac: MIC of the antibiotic in the combination: with D-11 at MICbc 4
Procedure, shortened: as §1

P. aeruginosa PA14 = assay: microbe, parasite or virus in culture; design: MICa: MIC of the antibiotic / MICac: MIC of the antibiotic in the combination: unit not given beside the values; conditions: strain PA14; for FICI: antibiotic + D-11 (MICb/MICbc 128/4); for MICa: MIC of the antibiotic: antibiotic alone; for MICa: MIC of the antibiotic / MICac: MIC of the antibiotic in the combination: unit not given; for MICac: MIC of the antibiotic in the combination: with D-11 at MICbc 4
Procedure, shortened: as §1

P. aeruginosa HM-214 = conditions: strain HM-214; antibiotic + D-11 (MICb/MICbc 128/4)
Procedure, shortened: as §1

[2] = read-out: Antibiotic sensibility (MIC) of clinical P. aeruginosa isolate AUMC-Pa-1, strain AUMC-Pa-1
[3] = read-out: Antibiotic sensibility (MIC) of clinical P. aeruginosa isolate AUMC-Pa-2, strain AUMC-Pa-2
[4] = read-out: Antibiotic sensibility (MIC) of clinical P. aeruginosa isolate AUMC-Pa-3, strain AUMC-Pa-3
[5] = read-out: Antibiotic sensibility (MIC) of clinical P. aeruginosa isolate AUMC-Pa-4, strain AUMC-Pa-4
[6] = read-out: Antibiotic sensibility (MIC) of clinical P. aeruginosa isolate AUMC-Pa-5, strain AUMC-Pa-5
[7] = read-out: Antibiotic sensibility (MIC) of clinical P. aeruginosa isolate AUMC-Pa-6, strain AUMC-Pa-6
[8] = read-out: Antibiotic sensibility (MIC) of clinical P. aeruginosa isolate HM-214, strain HM-214
[9] = read-out: Antibiotic sensibility (MIC) of clinical P. aeruginosa isolate NR-31040, strain NR-31040
[10] = read-out: Antibiotic sensibility (MIC) of clinical P. aeruginosa isolate NR-31041, strain NR-31041

SMILES: CC[C@H]1OC(=O)[C@H](C)[C@@H](O[C@H]2C[C@@](C)(OC)[C@@H](O)[C@H](C)O2)[C@H](C)[C@@H](O[C@@H]2O[C@H](C)C[C@H](N(C)C)[C@H]2O)[C@](C)(O)C[C@@H](C)CN(C)[C@H](C)[C@@H](O)[C@]1(C)O [Azithromycin]
- MIC [1, 2]: 128 µM
- MIC [1, 3]: 128 µM
- MIC [1, 4]: 128 µM
- MIC [1, 5]: 128 µM
- MIC [1, 6]: 128 µM
- MIC [1, 7]: 128 µM
- MIC [1, 8]: 128 µM
- MIC [1, 9]: 128 µM
- MIC [1, 10]: 128 µM
- FICI (P. aeruginosa AUMC-Pa-5): 0.313
- MICa: MIC of the antibiotic (P. aeruginosa AUMC-Pa-5): 128
- MICac: MIC of the antibiotic in the combination (P. aeruginosa AUMC-Pa-5): 32
- FICI (P. aeruginosa AUMC-Pa-4): 0.281
- MICa: MIC of the antibiotic (P. aeruginosa AUMC-Pa-4): 128
- MICac: MIC of the antibiotic in the combination (P. aeruginosa AUMC-Pa-4): 32
- MIC (P. aeruginosa PAO1; PAO1, read-out: MIC for azithromycin, azithromycin alone, PAO1): 128 µM
- MIC (P. aeruginosa PAO1; PAO1, read-out: MIC of AZM, initial bacterial density 10^3 CFU/mL): 64 µM
- MIC (P. aeruginosa PAO1; PAO1, read-out: MIC of AZM, initial bacterial density 10^4 CFU/mL): 64 µM
- MIC (P. aeruginosa PAO1; PAO1, read-out: MIC of AZM, initial bacterial density 10^5 CFU/mL): 128 µM
- MIC (P. aeruginosa PAO1; PAO1, read-out: MIC of AZM, initial bacterial density 10^6 CFU/mL): 128 µM
- MICa: the MIC of antibiotics (P. aeruginosa PAO1; S1 Table, macrolide alone, PAO1): 128 µM
- MICa: the MIC of azithromycin (P. aeruginosa PAO1; azithromycin alone, PAO1, broth microdilution in MHB, 18 h, 37 °C, triplicate): 128/128 μM and 128 μM
- FICI (P. aeruginosa AUMC-Pa-3): 0.094
- MICa: MIC of the antibiotic (P. aeruginosa AUMC-Pa-3): 128
- MICac: MIC of the antibiotic in the combination (P. aeruginosa AUMC-Pa-3): 8
- FICI (P. aeruginosa AUMC-Pa-6): 0.313
- MICa: MIC of the antibiotic (P. aeruginosa AUMC-Pa-6): 128
- MICac: MIC of the antibiotic in the combination (P. aeruginosa AUMC-Pa-6): 32
- FICI (P. aeruginosa AUMC-Pa-2): 0.313
- FICI (P. aeruginosa AUMC-Pa-1): 0.094
- FICI (P. aeruginosa PAK): 0.188
- MICa: MIC of the antibiotic (P. aeruginosa PAK): 128
- MICac: MIC of the antibiotic in the combination (P. aeruginosa PAK): 16
- FICI (P. aeruginosa NR-31041): 0.188
- MICa: MIC of the antibiotic (P. aeruginosa NR-31041): 128
- MICac: MIC of the antibiotic in the combination (P. aeruginosa NR-31041): 16
- FICI (P. aeruginosa ATCC27853): 0.156
- MICa: MIC of the antibiotic (P. aeruginosa ATCC27853; antibiotic alone, unit not given): 128
- MICac: MIC of the antibiotic in the combination (P. aeruginosa ATCC27853; with D-11 at MICbc 4, unit not given): 4
- FICI (P. aeruginosa NR-31040): 0.281
- MICa: MIC of the antibiotic (P. aeruginosa NR-31040): 128
- MICac: MIC of the antibiotic in the combination (P. aeruginosa NR-31040): 32
- FICI (P. aeruginosa PA14): 0.281
- MICa: MIC of the antibiotic (P. aeruginosa PA14): 128
- MICac: MIC of the antibiotic in the combination (P. aeruginosa PA14): 32
- FICI (P. aeruginosa HM-214): 0.281

SMILES: O=C(N[C@H](CO)[C@H](O)c1ccc([N+](=O)[O-])cc1)C(Cl)Cl [Chloramphenicol]
- MIC [1, 2]: > 128 µM
- MIC [1, 3]: 128 µM
- MIC [1, 4]: 128 µM
- MIC [1, 5]: 128 µM
- MIC [1, 6]: 128 µM
- MIC [1, 7]: 128 µM
- MIC [1, 8]: 128 µM
- MIC [1, 9]: 128 µM
- MIC [1, 10]: 128 µM
- FICI (P. aeruginosa AUMC-Pa-5): 0.188
- MICa: MIC of the antibiotic (P. aeruginosa AUMC-Pa-5): 128
- MICac: MIC of the antibiotic in the combination (P. aeruginosa AUMC-Pa-5): 16
- FICI (P. aeruginosa AUMC-Pa-4): 0.063
- MICa: MIC of the antibiotic (P. aeruginosa AUMC-Pa-4): 128
- MICac: MIC of the antibiotic in the combination (P. aeruginosa AUMC-Pa-4): 4
- FICI (P. aeruginosa PAO1; S3 Table, PAO1, antibiotic + 2 μM D-11): 0.094
- FICI (P. aeruginosa PAO1; S3 Table, PAO1, antibiotic + 4 μM D-11): 0.156
- MICac: the MIC for the antibiotic in the combination (P. aeruginosa PAO1; S3 Table, PAO1, with 2 μM D-11): 4 µM
- MICac: the MIC for the antibiotic in the combination (P. aeruginosa PAO1; S3 Table, PAO1, with 4 μM D-11): 4 µM
- MICa: the MIC of antibiotics (P. aeruginosa PAO1; S3 Table, antibiotic alone, PAO1): 128 µM
- FICI (P. aeruginosa AUMC-Pa-3): 0.063
- MICa: MIC of the antibiotic (P. aeruginosa AUMC-Pa-3): 128
- MICac: MIC of the antibiotic in the combination (P. aeruginosa AUMC-Pa-3): 4
- FICI (P. aeruginosa AUMC-Pa-6): 0.094
- MICa: MIC of the antibiotic (P. aeruginosa AUMC-Pa-6): 128
- MICac: MIC of the antibiotic in the combination (P. aeruginosa AUMC-Pa-6): 4
- FICI (P. aeruginosa AUMC-Pa-2): 0.094
- FICI (P. aeruginosa AUMC-Pa-1): 0.047
- FICI (P. aeruginosa PAK): 0.094
- MICa: MIC of the antibiotic (P. aeruginosa PAK): 128
- MICac: MIC of the antibiotic in the combination (P. aeruginosa PAK): 4
- FICI (P. aeruginosa NR-31041): 0.094
- MICa: MIC of the antibiotic (P. aeruginosa NR-31041): 128
- MICac: MIC of the antibiotic in the combination (P. aeruginosa NR-31041): 4
- FICI (P. aeruginosa ATCC27853): 0.141
- FICI (P. aeruginosa NR-31040): 0.063
- MICa: MIC of the antibiotic (P. aeruginosa NR-31040): 128
- MICac: MIC of the antibiotic in the combination (P. aeruginosa NR-31040): 4
- FICI (P. aeruginosa PA14): 0.063
- MICa: MIC of the antibiotic (P. aeruginosa PA14): 128
- MICac: MIC of the antibiotic in the combination (P. aeruginosa PA14): 4
- FICI (P. aeruginosa HM-214): 0.063
